Values of other authors as cited in patent publication EP0700285B1, “A DRUG DELIVERY COMPOSITION FOR ALPHA-ADRENO RECEPTOR BLOCKING AGENTS” (SYNTHELABO, priority 1993, dated 1994).

- plasma elimination half life (mean) (after intravenous administration): 4.8 h
- mean half life (after oral administration): 4.8 h
- mean oral bioavailability (immediate release dosage form): 64%
- parent compound excreted unchanged in the urine (in vivo): 11%
- volume of distribution (in vivo): 2.5 L/kg
SMILES: COc1cc2nc(N(C)CCCNC(=O)C3CCCO3)nc(N)c2cc1OC (centres unmarked) [alfuzosin]
